# Laboratory results from ChEMBL document CHEMBL1125524, “Adenosine A1 antagonists. 2. Structure-activity relationships on diuretic activities and protective effects against acute renal failure” (J Med Chem, 1992).
# Assays:
# Rattus norvegicus [1] = test: Effect on urinary excretion potassium and sodium after oral administration of 0.4 mg/kg to rats(potassium and sodium excretion in control rat is 0.175+/-0.014); type: functional, Urine
# Rattus norvegicus [2] = test: Effect on urinary excretion potassium and sodium after oral administration of 1.6 mg/kg to rats(potassium and sodium excretion in control rat is 0.122+/-0.008); type: functional, Urine
# Rattus norvegicus [3] = test: Ratio of urinary excretion value (urinary volume) in treated rats to that in control rats, at a peroral dose of 0.4 mg/Kg; type: functional, Urine
# Rattus norvegicus [4] = test: Ratio of urinary excretion value (urinary volume) in treated rats to that in control rats, at a peroral dose of 1.6 mg/Kg; type: functional, Urine
# Rattus norvegicus [5] = test: Ratio of urinary excretion value (urinary volume) in treated rats to that in control rats, at a peroral dose of 25 mg/Kg; type: functional, Urine
# Rattus norvegicus [6] = test: Ratio of sodium ion/potassium ion concentration in treated rats to that in control rats, at a peroral dose of 0.4 mg/Kg; type: functional
# Rattus norvegicus [7] = test: Ratio of sodium ion/potassium ion concentration in treated rats to that in control rats, at a peroral dose of 1.6 mg/Kg; type: functional
# Rattus norvegicus [8] = test: Ratio of sodium ion/potassium ion concentration in treated rats to that in control rats, at a peroral dose of 25 mg/Kg; type: functional
# Rattus norvegicus [9] = test: Ratio of urinary excretion value (Na+ concentration) in treated rats to that in control rats, at a peroral dose of 0.4 mg/Kg; type: functional, Urine
# Rattus norvegicus [10] = test: Ratio of urinary excretion value (Na+ concentration) in treated rats to that in control rats, at a peroral dose of 1.6 mg/Kg; type: functional, Urine
# Rattus norvegicus [11] = test: Ratio of urinary excretion value (Na+ concentration) in treated rats to that in control rats, at a peroral dose of 25 mg/Kg; type: functional, Urine
# Rattus norvegicus [12] = test: Ratio of urinary excretion value (Na+ concentration) in treated rats to that in control rats, at a peroral dose of 6.25 mg/Kg; type: functional, Urine
# Rattus norvegicus [13] = test: Effect on urinary excretion potassium and sodium after oral administration of 25 mg/kg to rats(potassium and sodium excretion in control rat is […]+/-[…]); type: functional, Urine
# Rattus norvegicus [14] = test: Oral diuretic activity was measured after oral administration of 25 mg/kg to rats(control volume is […]+/-[…]); type: functional, Urine
# Rattus norvegicus [15] = test: Oral diuretic activity was measured after oral administration of 0.4 mg/kg to rats(control volume is 0.94+/-0.03); type: functional, Urine
# Rattus norvegicus [16] = test: Oral diuretic activity was measured after oral administration of 1.6 mg/kg to rats(control volume is 0.83+/-0.07); type: functional, Urine
# Rattus norvegicus [17] = test: Serum creatinine concentration measured after intraperitoneal administration of 1 mg/kg of compound to rats(vehicle 5.43+/-0.11); type: functional
# Rattus norvegicus [18] = test: Urea nitrogen concentration measured after intraperitoneal administration of 1 mg/kg of compound to rats(vehicle 182.5+/-3.4); type: functional
# Rattus norvegicus [19] = test: Percent inhibition of serum creatinine by the compound given as ratio of Cr value in treated to vehicle treated ones after intraperitoneal administration of 1 mg/kg of compound to rats(vehicle 5.43+/-0.11); type: functional; conditions: ip
# Rattus norvegicus [20] = test: Percent inhibition of Urea nitrogen by the compound given as ratio of UN value in treated to vehicle treated ones after intraperitoneal administration of 1 mg/kg of compound to rats(vehicle 182.5+/-3.4); type: functional; conditions: ip
# Rattus norvegicus [21] = test: Ratio of urinary excretion value (urinary volume) in treated rats to that in control rats, at a peroral dose of 6.25 mg/Kg; type: functional, Urine
# Adenosine receptor A1 [22] = molecular target: T1, Adenosine receptor A1 (Rattus norvegicus, UniProt P25099)
# T1 sequence (P25099 whole entry): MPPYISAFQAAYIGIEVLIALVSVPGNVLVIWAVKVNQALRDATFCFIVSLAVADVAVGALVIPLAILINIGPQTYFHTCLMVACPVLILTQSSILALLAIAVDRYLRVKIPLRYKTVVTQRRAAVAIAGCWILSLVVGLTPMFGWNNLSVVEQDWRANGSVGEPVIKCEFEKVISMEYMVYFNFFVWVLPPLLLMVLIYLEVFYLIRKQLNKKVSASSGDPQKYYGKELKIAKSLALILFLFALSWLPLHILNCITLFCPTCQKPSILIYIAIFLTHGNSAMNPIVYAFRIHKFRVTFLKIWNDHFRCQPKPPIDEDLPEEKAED
# Description: Binding affinity towards adenosine A1 receptor in rat forebrain membranes using N6-[3H]cyclohexyladenosine
# Adenosine A2 receptor = Adenosine A2 receptor (Rattus norvegicus, UniProt P29276+P30543)
# Rattus norvegicus [23] = test: Serum creatinine concentration measured after intraperitoneal administration of 1 mg/kg of compound to rats(vehicle 4.41+/-0.17); type: functional
# Rattus norvegicus [24] = test: Effect on urinary excretion potassium and sodium after oral administration of 0.4 mg/kg to rats(potassium and sodium excretion in control rat is 0.261+/-0.0087); type: functional, Urine
# Rattus norvegicus [25] = test: Urea nitrogen concentration measured after intraperitoneal administration of 1 mg/kg of compound to rats(vehicle 147.9+/-6.1); type: functional
# Rattus norvegicus [26] = test: Percent inhibition of serum creatinine by the compound given as ratio of Cr value in treated to vehicle treated ones after intraperitoneal administration of 1 mg/kg of compound to rats(vehicle 4.41+/-0.17); type: functional; conditions: ip
# Rattus norvegicus [27] = test: Effect on urinary excretion potassium and sodium after oral administration of 25 mg/kg to rats(potassium and sodium excretion in control rat is 0.252+/-0.022); type: functional, Urine
# Rattus norvegicus [28] = test: Oral diuretic activity was measured after oral administration of 0.4 mg/kg to rats(control volume is […]+/-[…]); type: functional, Urine
# Rattus norvegicus [29] = test: Percent inhibition of Urea nitrogen by the compound given as ratio of UN value in treated to vehicle treated ones after intraperitoneal administration of 1 mg/kg of compound to rats(vehicle 147.9+/-6.1); type: functional; conditions: ip
# Adenosine receptor A1 [30] = molecular target: T2, Adenosine receptor A1 (Cavia porcellus, UniProt P47745)
# T2 sequence (P47745 whole entry): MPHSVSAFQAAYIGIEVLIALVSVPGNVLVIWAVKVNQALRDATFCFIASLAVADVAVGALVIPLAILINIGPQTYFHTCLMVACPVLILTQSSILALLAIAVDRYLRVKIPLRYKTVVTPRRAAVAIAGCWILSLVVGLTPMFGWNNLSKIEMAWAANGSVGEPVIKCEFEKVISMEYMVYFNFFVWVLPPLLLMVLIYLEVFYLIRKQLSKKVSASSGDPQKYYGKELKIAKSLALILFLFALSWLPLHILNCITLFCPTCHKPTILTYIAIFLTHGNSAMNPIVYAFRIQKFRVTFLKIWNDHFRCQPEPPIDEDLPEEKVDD
# Description: Binding affinity against adenosine A1 receptor in guinea pig forebrain membranes using N6-[3H]cyclohexyladenosine as radioligand
smiles,measurement,setting,value
CCCn1c(=O)c2nc(C(C3CC3)C3CC3)[nH]c2n(CCC)c1=O,Na,Rattus norvegicus [1],0.255 m equiv 6hr-1 100g-1
same,Na,Rattus norvegicus [2],0.284 m equiv 6hr-1 100g-1
same,T/C,Rattus norvegicus [3],1.33
same,T/C,Rattus norvegicus [4],2.2
same,T/C,Rattus norvegicus [5],2.44
same,Na+/K+,Rattus norvegicus [6],1.27
same,Na+/K+,Rattus norvegicus [7],1.56
same,Na+/K+,Rattus norvegicus [8],1.71
same,T/C,Rattus norvegicus [9],1.45
same,T/C,Rattus norvegicus [10],2.33
same,T/C,Rattus norvegicus [11],2.16
same,T/C,Rattus norvegicus [12],2.69
same,Na,Rattus norvegicus [13],0.35 m equiv 6hr-1 100g-1
same,Urine volume,Rattus norvegicus [14],2.07 ml 6hr-1 100g-1
same,Urine volume,Rattus norvegicus [15],1.25 ml 6hr-1 100g-1
same,Urine volume,Rattus norvegicus [16],1.83 ml 6hr-1 100g-1
same,Cr,Rattus norvegicus [17],5.43 mg/dL
same,UN,Rattus norvegicus [18],107.6 mg/dL
same,inhibition in vivo at 1 mg/kg,Rattus norvegicus [19],45%
same,inhibition in vivo at 1 mg/kg,Rattus norvegicus [20],41%
same,T/C,Rattus norvegicus [21],2.39
same,Ki,Adenosine receptor A1 [22],0.99 nM
same,Ki,Adenosine A2 receptor,430 nM
CCCn1c(=O)c2nc(C3CC4C=CC3C4)[nH]c2n(CCC)c1=O (stereo in doubt; 17),Cr,Rattus norvegicus [23],2.08 mg/dL
same,Na,Rattus norvegicus [24],0.233 m equiv 6hr-1 100g-1
same,UN,Rattus norvegicus [25],80.4 mg/dL
same,inhibition in vivo at 1 mg/kg,Rattus norvegicus [26],53%
same,Na,Rattus norvegicus [27],0.434 m equiv 6hr-1 100g-1
same,T/C,Rattus norvegicus [3],0.93
same,T/C,Rattus norvegicus [5],2.06
same,Na+/K+,Rattus norvegicus [6],0.98
same,T/C,Rattus norvegicus [9],0.89
same,T/C,Rattus norvegicus [11],1.72
same,T/C,Rattus norvegicus [12],2.51
same,Urine volume,Rattus norvegicus [14],2.47 ml 6hr-1 100g-1
same,Urine volume,Rattus norvegicus [28],1.32 ml 6hr-1 100g-1
same,inhibition in vivo at 1 mg/kg,Rattus norvegicus [29],56%
same,T/C,Rattus norvegicus [21],2.56
same,Ki,Adenosine receptor A1 [30],4.3 nM
same,Ki,Adenosine A2 receptor,480 nM
